Laboratory results: patent US9156815B2, “Salt of (R)-3-(6-amino-pyridin-3-yl)-2-(1-Cyclohexyl-1H-imidazol-4-yl) ethyl propionate” (Sanofi, priority 2011, dated 2015)
Counter-ions that a name gives are not always drawn.

How the values were obtained:
Assay type in all cases: physicochemical
[1] = Physical stability, storage for 14 days (XRPD, thermogravimetry); details: stored 14 days under conditions (A) to (D)
Method: Representative samples of the crystalline salt of (R)-3-(6-aminopyridin-3-yl)-2-(1-cyclohexyl-1H-imidazol-4-yl)propionic acid ethyl ester with naphthalene-1,5-disulfonic acid prepared as in example 1 are stored for 14 days under the conditions (A), (B), (C) and (D): • (A) 50° C. • (B) 50° C. and 80% relative atmospheric humidity • (C) 80° C. • (D) 80° C. and 80% relative atmospheric humidity Results:
Only a slight loss in mass during the thermogravimetric measurements (apparatus TA Instruments: TGA Q500, atmospheric nitrogen; rate 10° C./min) is observed, which is attributed to the release of water from the crystals.

[2] = Chiral stability, storage for 14 days (chiral HPLC)
Method: Representative samples of the crystalline salt of (R)-3-(6-aminopyridin-3-yl)-2-(1-cyclohexyl-1H-imidazol-4-yl)propionic acid ethyl ester with naphthalene-1,5-disulfonic acid prepared as in example 1 are stored for 14 days under the conditions (A), (B), (C) and (D) described in example 4:
The measurements were carried out using chromatography on chiral phase as described in example 1.
Chiral HPLC: (Chiralcel OD-H/84 (250×4.6 mm), heptane:Isopropanol:Acetonitrile 15:1:0.5+0.1% diethylamine (DEA), 30° C., 1 ml/min): Rt=27.01 min.

[3] = Salt screening of the API with acids and solvents, XRPD measurement; design: key: NKP means no crystalline phase; KFA means free acid crystallizes; details: API + acid
Method: The molar ratio between the H^+ concentration of the acid and of the API is 2 (for details see table 2). In each cavity of the microtiter plate, 68 microliters of the dissolved API are mixed with 40 microliters of the 0.1 normal acid solutions.
68 microliters of the dissolved API are pipetted into each cavity of a 96 microtiter plate. Then, in each case 40 microliters of the acids dissolved as in table 2 are added according to the scheme as detailed in table 3. The microtiter plate is shaken at room temperature for 20 min so that an equilibrium is formed in the cavities. Evaporation of the solvents at room temperature in a stream of nitrogen for 2 hours. Then, in each case 40 microliters of the solvents according to the scheme as detailed in table 3 are added. The microtiter plate is shaken at room temperature for 20 min so that an equilibrium is formed in the cavities. Evaporation of the solvent then takes place at room temperature in a stream of nitrogen for 2 hours. Finally, XRPD measurement is carried out.

Row | Compound | XRPD measurements at the start and after 14 days [1] | increase of the (S) enantiomer ([2]; 14 days, 50° C. (A)) | increase of the (S) enantiomer ([2]; 14 days, 50° C. and 80% relative atmospheric humidity (B)) | change of enantiomeric purity ([2]; 14 days, 80° C. (C)) | increase of the (S) enantiomer ([2]; 14 days, 80° C. and 80% relative atmospheric humidity (D)) | Enantiomeric purity ([2]; 14 days, storage condition (A) 50° C.) | Enantiomeric purity ([2]; 14 days, storage condition (B) 50° C. and 80% relative atmospheric humidity) | Enantiomeric purity ([2]; 14 days, storage condition (C) 80° C.) | Enantiomeric purity ([2]; 14 days, storage condition (D) 80° C. and 80% relative atmospheric humidity) | Enantiomeric purity ([2]; at the start of the measurement) | XRPD result of salt screening ([3]; solvent 2-Methyl-1-propanol) | XRPD result of salt screening ([3]; solvent 2-Propanol) | XRPD result of salt screening ([3]; solvent Butyl acetate) | XRPD result of salt screening ([3]; solvent Ethanol) | XRPD result of salt screening ([3]; solvent Methanol) | XRPD result of salt screening ([3]; solvent Methyl ethyl ketone) | XRPD result of salt screening ([3]; solvent Water) | XRPD result of salt screening ([3]; solvent Water:methanol 1:1)
1 | CCOC(=O)[C@H](Cc1ccc(N)nc1)c1cn(C2CCCCC2)cn1 [Example 1, crystalline salt of (R)-3-(6-aminopyridin-3-yl)-2-(1-cyclohexyl-1H-imidazol-4-yl)propionic acid ethyl ester with naphthalene-1,5-disulfonic acid] | close together | 0.2% | 0.2% | no change | 2.7% | 98.8% | 98.8% | 99.0% | 96.3% | 99.0% |  |  |  |  |  |  |  | 
2 | Benzoic acid |  |  |  |  |  |  |  |  |  |  | KFA | KFA | KFA | KFA | KFA | KFA | KFA | NKP
3 | Citric acid |  |  |  |  |  |  |  |  |  |  | NKP | NKP | NKP | NKP | NKP | NKP | NKP | NKP
4 | Sulfuric acid |  |  |  |  |  |  |  |  |  |  | NKP | NKP | NKP | NKP | NKP | NKP | NKP | NKP
5 | Tartaric acid |  |  |  |  |  |  |  |  |  |  | NKP | NKP | NKP | NKP | NKP | NKP | NKP | NKP

Further lines, results first:

Row | XRPD measurements at the start and after 14 days [1] | increase of the (S) enantiomer ([2]; 14 days, 50° C. (A)) | increase of the (S) enantiomer ([2]; 14 days, 50° C. and 80% relative atmospheric humidity (B)) | change of enantiomeric purity ([2]; 14 days, 80° C. (C)) | increase of the (S) enantiomer ([2]; 14 days, 80° C. and 80% relative atmospheric humidity (D)) | Enantiomeric purity ([2]; 14 days, storage condition (A) 50° C.) | Enantiomeric purity ([2]; 14 days, storage condition (B) 50° C. and 80% relative atmospheric humidity) | Enantiomeric purity ([2]; 14 days, storage condition (C) 80° C.) | Enantiomeric purity ([2]; 14 days, storage condition (D) 80° C. and 80% relative atmospheric humidity) | Enantiomeric purity ([2]; at the start of the measurement) | XRPD result of salt screening ([3]; solvent 2-Methyl-1-propanol) | XRPD result of salt screening ([3]; solvent 2-Propanol) | XRPD result of salt screening ([3]; solvent Butyl acetate) | XRPD result of salt screening ([3]; solvent Ethanol) | XRPD result of salt screening ([3]; solvent Methanol) | XRPD result of salt screening ([3]; solvent Methyl ethyl ketone) | XRPD result of salt screening ([3]; solvent Water) | XRPD result of salt screening ([3]; solvent Water:methanol 1:1) | Compound
6 |  |  |  |  |  |  |  |  |  |  | KFA | KFA | KFA | KFA | KFA | KFA | KFA | NKP | Adipic acid
7 |  |  |  |  |  |  |  |  |  |  | NKP | NKP | NKP | NKP | NKP | NKP | NKP | NKP | Fumaric acid
8 |  |  |  |  |  |  |  |  |  |  | NKP | NKP | NKP | NKP | NKP | NKP | NKP | NKP | Glucuronic acid
9 |  |  |  |  |  |  |  |  |  |  | NKP | NKP | NKP | NKP | NKP | NKP | NKP | NKP | Malonic acid
